Source: patent publication US4780467A, “Esters of N-alkyl-nortropines and their quaternary derivatives having anti-bronchospastic activity, and pharmaceutical compositions containing them” (Laboratori Guidotti Spa, priority 1986, dated 1988)
pIC50: −log10 of the molar value. Read-outs that look alike come from different tables or passages of the source.

How the values were obtained:
[1] = system: bronchospasm induced by acetyl choline aerosol in guinea pig; assay: inhibition of bronchospasm induced by acetyl choline aerosol in awake guinea pig; assay type: in vivo; details: for ED50, inhibition of bronchospasm induced by acetyl choline aerosol: i.v.; for ED50: Cavia porcellus, iv
[2] = system: isolated trachea of guinea pig; assay: relaxation of isolated trachea of guinea pig precontracted with methacoline; details: Cavia porcellus, read-out: IC50, relaxing the contraction of the isolated trachea of guinea pig precontracted with methacoline
Text: The compounds of the invention have been pharmacologically studied by means of in vitro and in vivo tests, suitable to evidence the anti-bronchospastic properties of the compounds. […] To this action a remarkable anti-bronchospastic action in the tests in vivo corresponded after administration by i.v. and inhalatory route.

[3] = system: PAF-acether induced bronchospasm in guinea pig; assay: inhibition of PAF-acether induced bronchospasm in anestetized guinea pig; assay type: in vivo; details: for inhibition of PAF-acether induced bronchospasm (in words): up to 3 μmol/kg; for inhibition % of PAF-acether induced bronchospasm: guinea pig, i.v.
[4] = acute toxicity in the mouse; details: in vivo; for LD50: approximate value; for selectivity ratio: ratio os/i.p., read-out: LD50 os/i.p.
[5] = system: platelet aggregation (rabbit prp) from collagen; assay: platelet aggregation (rabbit prp) from collagen; assay type: cell-based; details: Oryctolagus cuniculus
[6] = system: platelet aggregation (rabbit prp) from arachidonic acid; assay: platelet aggregation (rabbit prp) from arachidonic acid; assay type: cell-based; details: Oryctolagus cuniculus
[7] = system: platelet aggregation (rabbit prp) from PAF acether; assay: platelet aggregation (rabbit prp) from PAF-acether; assay type: cell-based; details: Oryctolagus cuniculus
[8] = ip, read-out: approximate value of LD50, i.p.
[9] = po, os, read-out: approximate value of LD50, os

CC[N+]1(C(C)C)[C@@H]2CC[C@H]1C[C@@H](OC(=O)C1CCCC=C1c1ccccc1)C2 (some centres unmarked) [1st formula, 1st R, 4th R']
ED50, inhibition of bronchospasm induced by acetyl choline aerosol [1]: ~ 5900 nmol kg^-1

CC[N+]1(CC(C)C)[C@@H]2CC[C@H]1C[C@@H](OC(=O)C1CCCC=C1c1ccccc1)C2 (some centres unmarked) [1st formula, 1st R, 6th R']
pIC50 [2]: 7.27
ED50 [1]: > 5.7 µmol/kg

CCCC[N+]1(CC)[C@@H]2CC[C@H]1C[C@@H](OC(=O)C1CCCC=C1c1ccccc1)C2 (some centres unmarked) [1st formula, 1st R, 7th R']
pIC50 [2]: 7.16

CC(C)[N+]1(C(C)C)[C@@H]2CC[C@H]1C[C@@H](OC(=O)C1CCCC=C1c1ccccc1)C2 (some centres unmarked) [1st formula, 2nd R, 4th R']
pIC50 [2]: 7.34
ED50 [1]: 2.5 µmol/kg

CC(C)C[N+]1(C(C)C)[C@@H]2CC[C@H]1C[C@@H](OC(=O)C1CCCC=C1c1ccccc1)C2 (some centres unmarked) [1st formula, 2nd R, 6th R']
pIC50 [2]: 7.10
ED50 [1]: 1.08 µmol/kg

CCCC[N+]1(C(C)C)[C@@H]2CC[C@H]1C[C@@H](OC(=O)C1CCCC=C1c1ccccc1)C2 (some centres unmarked) [1st formula, 2nd R, 7th R']
pIC50 [2]: 7.35
ED50 [1]: 0.99 µmol/kg

CCC[N+]1(C(C)C)[C@@H]2CC[C@H]1C[C@@H](OC(=O)C1CCCC=C1c1ccccc1)C2 (some centres unmarked) [1st formula, 3rd R, 4th R']
ED50 [1]: > 5.7 µmol/kg

CCC[N+]1(CCC)[C@@H]2CC[C@H]1C[C@@H](OC(=O)C1CCCC=C1c1ccccc1)C2 (some centres unmarked) [1st formula, 3rd R, 5th R']
pIC50 [2]: 6.42

CCC[N+]1(CC(C)C)[C@@H]2CC[C@H]1C[C@@H](OC(=O)C1CCCC=C1c1ccccc1)C2 (some centres unmarked) [1st formula, 3rd R, 6th R']
pIC50 [2]: 5.92
ED50 [1]: > 5.6 µmol/kg

CCCC[N+]1(CCC)[C@@H]2CC[C@H]1C[C@@H](OC(=O)C1CCCC=C1c1ccccc1)C2 (some centres unmarked) [1st formula, 3rd R, 7th R']
pIC50 [2]: 6.72
ED50 [1]: > 5.6 µmol/kg

CC(C)[N+]1(C)[C@@H]2CC[C@H]1C[C@@H](OC(=O)CC1=C(c3ccccc3)CCCC1)C2 (some centres unmarked) [2nd formula, 1st R, 4th R']
ED50 [1]: > 0.6 µmol/kg

CCC[N+]1(C)[C@@H]2CC[C@H]1C[C@@H](OC(=O)CC1=C(c3ccccc3)CCCC1)C2 (some centres unmarked) [2nd formula, 1st R, 5th R']
pIC50 [2]: 6.62
ED50 [1]: > 0.6 µmol/kg

CC(C)[N+]1(C(C)C)[C@@H]2CC[C@H]1C[C@@H](OC(=O)CC1=C(c3ccccc3)CCCC1)C2 [2nd formula, 2nd R, 4th R']
pIC50 [2]: 4.17
ED50 [1]: > 5.6 µmol/kg

CCC[N+]1(C(C)C)[C@@H]2CC[C@H]1C[C@@H](OC(=O)CC1=C(c3ccccc3)CCCC1)C2 (some centres unmarked) [2nd formula, 2nd R, 5th R']
pIC50 [2]: 5.07
ED50 [1]: > 5.6 µmol/kg

CN1[C@@H]2CC[C@H]1C[C@@H](OC(=O)C(CO)c1ccccc1)C2 (some centres unmarked) [Atropine sulphate, atropine sulphate, reference compound]
pIC50 [2]: 8.16
ED50 [1]: 0.068 µmol/kg
ED50, inhibition of bronchospasm induced by acetyl choline aerosol [1]: 68 nmol/kg
inhibition of PAF-acether induced bronchospasm (in words) ([3]; anestetized guinea pig): fully inactive
inhibition % of PAF-acether induced bronchospasm ([3]; 3 μmol kg^-1): 0%

CC(C)N1[C@@H]2CC[C@H]1C[C@@H](OC(=O)C1CCCC=C1c1ccccc1)C2 (stereo partly drawn) [Example 1, Endo-3-(2-phenyl-2-cyclohexen-1-carbonyloxy)-8-sin-isopropyl-8-azabicyclo-[3.2.1]-octane]
pIC50 [2]: 6.46
ED50 [1]: ~1.5 µmol/kg

CCN1[C@@H]2CC[C@H]1C[C@@H](OC(=O)C1CCCC=C1c1ccccc1)C2 (stereo partly drawn) [Example 4, Endo-3-(2-phenyl-2-cyclohexen-1-carbonyloxy)-8-sin-ethyl-8-azabicyclo-[3.2.1.]-octane]
pIC50 [2]: 6.55
ED50 [1]: 6.12 µmol/kg

CCCN1[C@@H]2CC[C@H]1C[C@@H](OC(=O)C1CCCC=C1c1ccccc1)C2 (stereo partly drawn) [Example 5, Endo-3-(2-phenyl-2-cyclohexen-1-carbonyloxy)-8-sin-propyl-8-azabicyclo-[3.2.1.]-octane]
pIC50 [2]: 5.77
ED50 [1]: > 7.7 µmol/kg

CN1[C@@H]2CC[C@H]1C[C@@H](OC(=O)CC1=C(c3ccccc3)CCCC1)C2 [Example 6, Endo-3-(2-phenyl-1-cyclohexen-1-acetoxy)-8-sin-methyl-8-azabicyclo-[3.2.1.]-octane]
pIC50 [2]: 5.38
ED50 [1]: ~15 µmol/kg

CC(C)N1[C@@H]2CC[C@H]1C[C@@H](OC(=O)CC1=C(c3ccccc3)CCCC1)C2 [Example 7, Endo-3-(2-phenyl-1-cyclohexen-1-acetoxy)-8-sin-isoproyl-8-azabicyclo-[3.2.1.]-octane]
pIC50 [2]: 4.52
ED50 [1]: > 7.4 µmol/kg

C[N+]1(C)[C@@H]2CC[C@H]1C[C@@H](OC(=O)CC1=C(c3ccccc3)CCCC1)C2 [Example 8, Endo-3-(2-phenyl-1-cyclohexen-1-acetoxy)-8,8-dimethyl-8-azoniabicyclo-[3.2.1.]-octane iodide]
LD50 [4, 8]: 45 mg/kg
selectivity ratio ([4]; ip): 18
LD50 [4, 9]: 800 mg/kg
pIC50 [2]: 8.96

CC[N+]1(C)[C@@H]2CC[C@H]1C[C@@H](OC(=O)CC1=C(c3ccccc3)CCCC1)C2 (stereo partly drawn) [Example 9, Endo-3-(2-phenyl-1-cyclohexen-1-acetoxy)-8-sin-methyl-8-ethyl-8-azoniabicyclo-[3.2.1.]-octane iodide]
pIC50 [2]: 7.49
ED50 [1]: ~0.4 µmol/kg

CC(C)[N+]1(C)[C@@H]2CC[C@H]1C[C@@H](OC(=O)C1CCCC=C1c1ccccc1)C2 (stereo partly drawn) [Example 13, Endo-3-(2-phenyl-2-cyclohexen-1-carbonyloxy)-8-sin-isopropyl-8-methyl-8-azoniabicyclo-[3.2.1.]-octane iodide]
LD50 [4, 8]: 123 mg/kg
selectivity ratio ([4]; ip): 4.1
LD50 [4, 9]: 500 mg/kg
pIC50 [2]: 9.17
pIC50 [5]: < 4.00
pIC50 [6]: < 4.00
pIC50 [7]: 4.41
inhibition % of PAF-acether induced bronchospasm ([3]; 0.3 μmol kg^-1): 0%
inhibition % of PAF-acether induced bronchospasm ([3]; 3 μmol kg^-1): 28 ± 13%

CC[N+]1(C(C)C)[C@@H]2CC[C@H]1C[C@@H](OC(=O)C1CCCC=C1c1ccccc1)C2 (stereo partly drawn) [Example 14, Endo-3-(2-phenyl-2-cyclohexen-1-carbonyloxy)-8-sin-isopropyl-8-ethyl-8-azoniabicylo-[3.2.1.]-octane iodide]
LD50 [4, 8]: 91 mg/kg
selectivity ratio ([4]; ip): 3.3
LD50 [4, 9]: 300 mg/kg
pIC50 [5]: < 4.00
pIC50 [6]: < 4.00
ED50, inhibition of bronchospasm induced by acetyl choline aerosol ([1]; listed as 1st formula, 2nd R, R'=CH2CH3): 22 nmol/kg
pIC50 [7]: 4.52
inhibition % of PAF-acether induced bronchospasm ([3]; 0.3 μmol kg^-1): 0%
inhibition % of PAF-acether induced bronchospasm ([3]; 3 μmol kg^-1): 42 ± 14%

CC[N+]1(C)[C@@H]2CC[C@H]1C[C@@H](OC(=O)C1CCCC=C1c1ccccc1)C2 (stereo partly drawn) [Example 20, Endo-3-(2-phenyl-2-cyclohexen-1-carbonyloxy)-8-sin-ethyl-8-methyl-8-azoniabicyclo-[3.2.1.]-octane iodide]
LD50 [4, 8]: 126 mg/kg
selectivity ratio ([4]; ip): 2.8
LD50 [4, 9]: 350 mg/kg
pIC50 [2]: 9.02
pIC50 [5]: < 4.00
pIC50 [6]: < 4.00
pIC50 [7]: 5.11
inhibition % of PAF-acether induced bronchospasm ([3]; 0.3 μmol kg^-1): 3 ± 11%
inhibition % of PAF-acether induced bronchospasm ([3]; 3 μmol kg^-1): 36 ± 17%

CC[N+]1(CC)[C@@H]2CC[C@H]1C[C@@H](OC(=O)C1CCCC=C1c1ccccc1)C2 (stereo partly drawn) [Example 21, Endo-3-(2-phenyl-2-cyclohexene-1-carbonyloxy)-8,8-di-ethyl-azoniabicyclo-[3.2.1.]-octane iodide]
LD50 [4, 8]: 107 mg/kg
selectivity ratio ([4]; ip): 7.5
LD50 [4, 9]: 800 mg/kg
pIC50 [2]: 10.52
pIC50 [5]: < 4.00
pIC50 [6]: < 4.00
ED50 [1]: 0.029 µmol/kg
pIC50 [7]: 5.62
ED50 ([3]; Cavia porcellus, anestetized guinea pig): 0.8 µmol/kg
inhibition % of PAF-acether induced bronchospasm ([3]; 0.3 μmol kg^-1): 43 ± 16%
inhibition % of PAF-acether induced bronchospasm ([3]; 3 μmol kg^-1): 64 ± 16%

CCC[N+]1(C)[C@@H]2CC[C@H]1C[C@@H](OC(=O)C1CCCC=C1c1ccccc1)C2 (stereo partly drawn) [Example 25, Endo-3-(2-phenyl-2-cyclohexen-1-carbonyloxy)-8-sin-propyl-8-methyl-8-azoniabicyclo-[3.2.1.]-octane iodide]
LD50 [4, 8]: 124 mg/kg
selectivity ratio ([4]; ip): 4.8
LD50 [4, 9]: 600 mg/kg
pIC50 [2]: 8.48

CCC[N+]1(CC)[C@@H]2CC[C@H]1C[C@@H](OC(=O)C1CCCC=C1c1ccccc1)C2 (stereo partly drawn) [Example 26, Endo-3-(2-phenyl-2-cyclohexen-1-carbonyloxy)-8-sin-propyl-8-ethyl-8-azoniabicyclo-[3.2.1.]-octane iodide]
ED50 [1]: 0.228 µmol/kg

CC(C)[N+]1(C)[C@@H]2CC[C@H]1C[C@@H](OC(=O)CC1=C(c3ccccc3)CCCC1)C2 (stereo partly drawn) [Example 31, Endo-3-(2-phenyl-1-cyclohexen-1-acetoxy)-8-sin-isopropyl-8-methyl-8-azoniabicyclo-[3.2.1.]-octane iodide]
pIC50 [2]: 7.57

CC[N+]1(C(C)C)[C@@H]2CC[C@H]1C[C@@H](OC(=O)CC1=C(c3ccccc3)CCCC1)C2 (stereo partly drawn) [Example 32, Endo-3-(2-phenyl-1-cyclohexen-1-acetoxy)-8-sin-isopropyl-8-ethyl-8-azoniabicyclo-[3.2.1.]-octane iodide]
pIC50 [2]: 5.05
ED50 [1]: > 5.7 µmol/kg

CC(C)[N+]1(C)[C@@H]2CC[C@H]1C[C@@H](OC(=O)C(CO)c1ccccc1)C2 (some centres unmarked) [ipratropium bromide, reference compound]
pIC50 [2]: 8.70
ED50 [1]: 0.012 µmol/kg
ED50, inhibition of bronchospasm induced by acetyl choline aerosol [1]: 12 nmol/kg
inhibition of PAF-acether induced bronchospasm (in words) ([3]; anestetized guinea pig): fully inactive
inhibition % of PAF-acether induced bronchospasm ([3]; 3 μmol kg^-1): 7 ± 10%
